Molecules are shown by their SMILES. Activity calls are given as the source filed them. How the calls were made is not given here.

In the data set the test system is CCRIS mutagenicity, Ames/micronucleus/aberration tests. Description: CCRIS mutagenicity studies.
[1] abbreviates: Test System: AMES SALMONELLA TYPHIMURIUM, Strain/Indicator: TA98, Metabolic Activation: NONE, Method: STANDARD PLATE.
Setting [2] is: Test System: AMES SALMONELLA TYPHIMURIUM, Strain/Indicator: TA100, Metabolic Activation: NONE, Method: STANDARD PLATE.
[3] abbreviates: Test System: AMES SALMONELLA TYPHIMURIUM, Strain/Indicator: TA98, Metabolic Activation: RAT, LIVER, S-9, AROCLOR 1254, Method: STANDARD PLATE.
Setting [4] is: Test System: AMES SALMONELLA TYPHIMURIUM, Strain/Indicator: TA100, Metabolic Activation: RAT, LIVER, S-9, AROCLOR 1254, Method: STANDARD PLATE.
Setting [5] is: Test System: AMES SALMONELLA TYPHIMURIUM, Strain/Indicator: TA100, Metabolic Activation: NONE, Method: PREINCUBATION
The mark [6] stands for this setting: Test System: AMES SALMONELLA TYPHIMURIUM, Strain/Indicator: TA98, Metabolic Activation: NONE, Method: PREINCUBATION
[7] abbreviates: Test System: AMES SALMONELLA TYPHIMURIUM, Strain/Indicator: TA1535, Metabolic Activation: NONE, Method: PREINCUBATION

Turning to `C[C@@H]1C[C@@]2(C)[C@@H](CC[C@@H]3[C@@H]2CC[C@]2(C)[C@@H](O)CC[C@@H]32)CC1=O`, the mutagenic call runs as follows: under setting [1], “inactive; negative”; (Test System: AMES SALMONELLA TYPHIMURIUM, Strain/Indicator: TA98, Metabolic Activation: S-9, Method: STANDARD PLATE) “inactive; negative”; under setting [2], “inactive; negative”; (Test System: AMES SALMONELLA TYPHIMURIUM, Strain/Indicator: TA100, Metabolic Activation: S-9, Method: STANDARD PLATE) “inactive; negative”; (Test System: E. COLI, Strain/Indicator: WP2 (HCR), Metabolic Activation: NONE, Method: STANDARD PLATE) “inactive; negative”; (Test System: E. COLI, Strain/Indicator: WP2 (HCR), Metabolic Activation: S-9, Method: STANDARD PLATE) “inactive; negative”.

Regarding `c1ccc(C(c2ccccc2)c2ccccc2)cc1`, the mutagenic call runs as follows: (Test System: AMES SALMONELLA TYPHIMURIUM, Strain/Indicator: TA97, Metabolic Activation: NONE, Method: STANDARD PLATE) “inactive; negative”; (Test System: AMES SALMONELLA TYPHIMURIUM, Strain/Indicator: TA97, Metabolic Activation: RAT, LIVER, S-9, AROCLOR 1254, Method: STANDARD PLATE) “inactive; negative”; under setting [1], “inactive; negative”; under setting [3], “inactive; negative”; under setting [2], “inactive; negative”; under setting [4], “inactive; negative”. In addition, the mutagenic call was “inactive; negative” (Test System: AMES SALMONELLA TYPHIMURIUM, Strain/Indicator: TA104, Metabolic Activation: NONE, Method: STANDARD PLATE) and “inactive; negative” (Test System: AMES SALMONELLA TYPHIMURIUM, Strain/Indicator: TA104, Metabolic Activation: RAT, LIVER, S-9, AROCLOR 1254, Method: STANDARD PLATE).

Regarding `CCCCN(C[C@@H](CO)Cc1ccccc1)N=O`, the mutagenic call by setting is: under setting [5], “inactive; negative”; (Test System: AMES SALMONELLA TYPHIMURIUM, Strain/Indicator: TA100, Metabolic Activation: RAT, LIVER, S-9, PCB, Method: PREINCUBATION) “active; positive”.

`CCC[CH2][Sn]([CH2]CCC)([CH2]CCC)[O][Sn]([CH2]CCC)([CH2]CCC)[CH2]CCC`: the mutagenic call was “inactive; negative” (Test System: AMES SALMONELLA TYPHIMURIUM, Strain/Indicator: TA97, Metabolic Activation: HAMSTER, LIVER, S-9, AROCLOR 1254 (10 OR 30%), Method: PREINCUBATION); “inactive; negative” (Test System: AMES SALMONELLA TYPHIMURIUM, Strain/Indicator: TA97, Metabolic Activation: NONE, Method: PREINCUBATION); “inactive; negative” (Test System: AMES SALMONELLA TYPHIMURIUM, Strain/Indicator: TA97, Metabolic Activation: RAT, LIVER, S-9, AROCLOR 1254 (10 OR 30%), Method: PREINCUBATION); “inactive; negative” (Test System: AMES SALMONELLA TYPHIMURIUM, Strain/Indicator: TA98, Metabolic Activation: HAMSTER, LIVER, S-9, AROCLOR 1254 (10 OR 30%), Method: PREINCUBATION); “inactive; negative” under setting [6]; “inactive; negative” (Test System: AMES SALMONELLA TYPHIMURIUM, Strain/Indicator: TA98, Metabolic Activation: NONE, Method: SUSPENSION/PLATE). Besides, the mutagenic call runs as follows: (Test System: AMES SALMONELLA TYPHIMURIUM, Strain/Indicator: TA98, Metabolic Activation: RAT, LIVER, S-9, AROCLOR 1254 (10 OR 30%), Method: PREINCUBATION) “inactive; negative”; (Test System: AMES SALMONELLA TYPHIMURIUM, Strain/Indicator: TA100, Metabolic Activation: HAMSTER, LIVER, S-9, AROCLOR 1254 (10 OR 30%), Method: PREINCUBATION) “inactive; negative”; under setting [5], “inactive; negative”; (Test System: AMES SALMONELLA TYPHIMURIUM, Strain/Indicator: TA100, Metabolic Activation: NONE, Method: SUSPENSION/PLATE) “inactive; negative”; (Test System: AMES SALMONELLA TYPHIMURIUM, Strain/Indicator: TA100, Metabolic Activation: RAT, LIVER, S-9, AROCLOR 1254 (10 OR 30%), Method: PREINCUBATION) “inactive; negative”; (Test System: AMES SALMONELLA TYPHIMURIUM, Strain/Indicator: TA1535, Metabolic Activation: HAMSTER, LIVER, S-9, AROCLOR 1254 (10 OR 30%), Method: PREINCUBATION) “inactive; negative”. Besides, the mutagenic call under setting [7] is “inactive; negative” and the mutagenic call (Test System: AMES SALMONELLA TYPHIMURIUM, Strain/Indicator: TA1535, Metabolic Activation: RAT, LIVER, S-9, AROCLOR 1254 (10 OR 30%), Method: PREINCUBATION) was “inactive; negative”.

On to `CN(C)c1ccc([C@H]2C[C@]3(C)[C@@H](CC[C@]3(O)CCCO)[C@@H]3CCC4=CC(=O)CCC4=C32)cc1`, for which the mutagenic call runs as follows: (End Point: IN VITRO CHROMOSOMAL ABERRATIONS, Test System: HUMAN PERIPHERAL LYMPHOCYTES, Metabolic Activation: NONE) “inactive; negative”; (End Point: IN VITRO CHROMOSOMAL ABERRATIONS, Test System: HUMAN PERIPHERAL LYMPHOCYTES, Metabolic Activation: RAT, LIVER, S-9, AROCLOR 1254) “inactive; negative”; (End Point: IN VIVO MICRONUCLEUS, Test System: BONE MARROW POLYCHROMATIC ERYTHROCYTES, Species: MOUSE, Strain/Sex: NMRI/MALE, FEMALE, Route: INTRAGASTRIC) “inactive; negative”; under setting [6], “inactive; negative”; under setting [1], “inactive; negative”; (Test System: AMES SALMONELLA TYPHIMURIUM, Strain/Indicator: TA98, Metabolic Activation: RAT, LIVER, S-9, AROCLOR 1254, Method: PREINCUBATION) “inactive; negative”. The mutagenic call under setting [3] was “inactive; negative”; the mutagenic call under setting [5] was “inactive; negative”; the mutagenic call under setting [2] was “inactive; negative”; the mutagenic call (Test System: AMES SALMONELLA TYPHIMURIUM, Strain/Indicator: TA100, Metabolic Activation: RAT, LIVER, S-9, AROCLOR 1254, Method: PREINCUBATION) was “inactive; negative”; the mutagenic call under setting [4] was “inactive; negative”; the mutagenic call under setting [7] is “inactive; negative”. The mutagenic call is “inactive; negative” (Test System: AMES SALMONELLA TYPHIMURIUM, Strain/Indicator: TA1535, Metabolic Activation: NONE, Method: STANDARD PLATE); “inactive; negative” (Test System: AMES SALMONELLA TYPHIMURIUM, Strain/Indicator: TA1535, Metabolic Activation: RAT, LIVER, S-9, AROCLOR 1254, Method: PREINCUBATION); “inactive; negative” (Test System: AMES SALMONELLA TYPHIMURIUM, Strain/Indicator: TA1535, Metabolic Activation: RAT, LIVER, S-9, AROCLOR 1254, Method: STANDARD PLATE); “inactive; negative” (Test System: AMES SALMONELLA TYPHIMURIUM, Strain/Indicator: TA1537, Metabolic Activation: NONE, Method: PREINCUBATION); “inactive; negative” (Test System: AMES SALMONELLA TYPHIMURIUM, Strain/Indicator: TA1537, Metabolic Activation: NONE, Method: STANDARD PLATE); “inactive; negative” (Test System: AMES SALMONELLA TYPHIMURIUM, Strain/Indicator: TA1537, Metabolic Activation: RAT, LIVER, S-9, AROCLOR 1254, Method: PREINCUBATION). The mutagenic call was “inactive; negative” (Test System: AMES SALMONELLA TYPHIMURIUM, Strain/Indicator: TA1537, Metabolic Activation: RAT, LIVER, S-9, AROCLOR 1254, Method: STANDARD PLATE); “inactive; negative” (Test System: AMES SALMONELLA TYPHIMURIUM, Strain/Indicator: TA1538, Metabolic Activation: NONE, Method: PREINCUBATION); “inactive; negative” (Test System: AMES SALMONELLA TYPHIMURIUM, Strain/Indicator: TA1538, Metabolic Activation: NONE, Method: STANDARD PLATE); “inactive; negative” (Test System: AMES SALMONELLA TYPHIMURIUM, Strain/Indicator: TA1538, Metabolic Activation: RAT, LIVER, S-9, AROCLOR 1254, Method: PREINCUBATION); “inactive; negative” (Test System: AMES SALMONELLA TYPHIMURIUM, Strain/Indicator: TA1538, Metabolic Activation: RAT, LIVER, S-9, AROCLOR 1254, Method: STANDARD PLATE); “inactive; negative” (Test System: CHINESE HAMSTER V-79, Strain/Indicator: V-79 (HGPRT)/6-THIOGUANINE, Metabolic Activation: NONE). Besides, the mutagenic call (Test System: CHINESE HAMSTER V-79, Strain/Indicator: V-79 (HGPRT)/6-THIOGUANINE, Metabolic Activation: RAT, LIVER, S-9, AROCLOR 1254) is “inactive; negative”.

Source of the values: PubChem BioAssay AID1259407 (Chemical Carcinogenesis Research Information System (CCRIS), 2018).
